Test results published in PMC7116157 (Nature chemical biology, 2019).

Molecular target: T1, Cleavage and Polyadenylation Specificity Factor 3 (CPSF3) (Homo sapiens, UniProt Q9UKF6)
T1 sequence (Q9UKF6 1-459): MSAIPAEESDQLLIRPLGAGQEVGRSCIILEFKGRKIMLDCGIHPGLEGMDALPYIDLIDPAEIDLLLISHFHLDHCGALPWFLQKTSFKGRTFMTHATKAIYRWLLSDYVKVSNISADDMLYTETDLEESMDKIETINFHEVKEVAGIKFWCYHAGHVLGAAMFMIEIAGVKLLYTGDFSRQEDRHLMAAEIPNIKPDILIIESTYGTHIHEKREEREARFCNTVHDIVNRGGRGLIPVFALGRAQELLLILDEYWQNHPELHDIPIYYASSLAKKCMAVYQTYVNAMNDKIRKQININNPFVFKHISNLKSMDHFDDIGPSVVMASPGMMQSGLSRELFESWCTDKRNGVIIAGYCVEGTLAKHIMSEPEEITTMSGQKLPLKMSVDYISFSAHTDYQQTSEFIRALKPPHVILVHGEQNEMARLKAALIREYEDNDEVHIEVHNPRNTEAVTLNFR
Assay: […] Å co-crystal structure
Assay type: binding

Structure (SMILES): CN1CCN(CCOc2c(Cl)cc(C(=O)N[C@@H](Cc3ccccc3)C(=O)O)c(O)c2Cl)CC1 [compound 2]
- Kd: 370 nM
